Reference: PubChem BioAssay (NCI)
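Test compounds were applied to cells in 96-well plates for 48 hours at 5 doses. TGI marks complete inhibition of growth.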

Columns and labels:
Experiment in all cases: NCI anticancer screen, dose series, 48 h
PC-3 prostate = tested on: PC-3 prostate
HCT-116 colon = tested on: HCT-116 colon
LOX IMVI melanoma = tested on: LOX IMVI melanoma
COLO 205 colon = tested on: COLO 205 colon
M14 melanoma = tested on: M14 melanoma
OVCAR-8 ovarian = tested on: OVCAR-8 ovarian
HOP-92 NSCLC = tested on: HOP-92 NSCLC
HT29 colon = tested on: HT29 colon
BT-549 breast = tested on: BT-549 breast
SF-295 CNS = tested on: SF-295 CNS
CCRF-CEM leukemia = tested on: CCRF-CEM leukemia
K-562 leukemia = tested on: K-562 leukemia
SF-539 CNS = tested on: SF-539 CNS
MDA-MB-435 = tested on: MDA-MB-435
TK-10 renal = tested on: TK-10 renal
RXF 393 renal = tested on: RXF 393 renal
SK-MEL-2 melanoma = tested on: SK-MEL-2 melanoma
HCT-15 colon = tested on: HCT-15 colon
SK-MEL-28 melanoma = tested on: SK-MEL-28 melanoma
SR leukemia = tested on: SR leukemia
MOLT-4 leukemia = tested on: MOLT-4 leukemia
MCF7 breast = tested on: MCF7 breast
OVCAR-4 ovarian = tested on: OVCAR-4 ovarian
T-47D breast = tested on: T-47D breast
CAKI-1 renal = tested on: CAKI-1 renal
ACHN renal = tested on: ACHN renal
UACC-257 melanoma = tested on: UACC-257 melanoma
HL-60(TB) leukemia = tested on: HL-60(TB) leukemia
SW-620 colon = tested on: SW-620 colon
DU-145 prostate = tested on: DU-145 prostate
786-0 renal = tested on: 786-0 renal
SK-OV-3 ovarian = tested on: SK-OV-3 ovarian
NCI-H522 lung = tested on: NCI-H522 lung
NCI-H460 lung = tested on: NCI-H460 lung
MALME-3M melanoma = tested on: MALME-3M melanoma
HS 578T breast = tested on: HS 578T breast
UO-31 renal = tested on: UO-31 renal
MDA-N = tested on: MDA-N
A498 renal = tested on: A498 renal
SK-MEL-5 melanoma = tested on: SK-MEL-5 melanoma
SNB-75 CNS = tested on: SNB-75 CNS
OVCAR-3 ovarian = tested on: OVCAR-3 ovarian
OVCAR-5 ovarian = tested on: OVCAR-5 ovarian
EKVX NSCLC = tested on: EKVX NSCLC
SF-268 CNS = tested on: SF-268 CNS
KM12 colon = tested on: KM12 colon
RPMI-8226 leukemia = tested on: RPMI-8226 leukemia
A549 NSCLC = tested on: A549 NSCLC
SN12C renal = tested on: SN12C renal
HOP-62 NSCLC = tested on: HOP-62 NSCLC
NCI/ADR-RES ovarian = tested on: NCI/ADR-RES ovarian
U251 CNS = tested on: U251 CNS
UACC-62 melanoma = tested on: UACC-62 melanoma
IGROV1 ovarian = tested on: IGROV1 ovarian
NCI-H23 lung = tested on: NCI-H23 lung
NCI-H226 lung = tested on: NCI-H226 lung
MDA-MB-231 breast = tested on: MDA-MB-231 breast
SNB-19 CNS = tested on: SNB-19 CNS
HCC-2998 colon = tested on: HCC-2998 colon

CC[N+](C)(CC)Cc1ccccc1[N+](=O)[O-]
TGI (PC-3 prostate): > 100 µM
TGI (HCT-116 colon): > 100 µM
TGI (LOX IMVI melanoma): > 100 µM
TGI (COLO 205 colon): > 100 µM
TGI (M14 melanoma): > 100 µM
TGI (OVCAR-8 ovarian): > 100 µM
TGI (HOP-92 NSCLC): > 100 µM
TGI (HT29 colon): > 100 µM
TGI (BT-549 breast): > 100 µM
TGI (SF-295 CNS): > 100 µM
TGI (CCRF-CEM leukemia): > 100 µM
TGI (K-562 leukemia): > 100 µM
TGI (SF-539 CNS): > 100 µM
TGI (MDA-MB-435): > 100 µM
TGI (TK-10 renal): > 100 µM
TGI (RXF 393 renal): > 100 µM
TGI (SK-MEL-2 melanoma): > 100 µM
TGI (HCT-15 colon): > 100 µM
TGI (SK-MEL-28 melanoma): > 100 µM
TGI (SR leukemia): > 100 µM
TGI (MOLT-4 leukemia): > 100 µM
TGI (MCF7 breast): > 100 µM
TGI (OVCAR-4 ovarian): > 100 µM
TGI (T-47D breast): > 100 µM
TGI (CAKI-1 renal): > 100 µM
TGI (ACHN renal): > 100 µM
TGI (UACC-257 melanoma): > 100 µM
TGI (HL-60(TB) leukemia): > 100 µM
TGI (SW-620 colon): > 100 µM
TGI (DU-145 prostate): > 100 µM
TGI (786-0 renal): > 100 µM
TGI (SK-OV-3 ovarian): > 100 µM
TGI (NCI-H522 lung): > 100 µM
TGI (NCI-H460 lung): > 100 µM
TGI (MALME-3M melanoma): > 100 µM
TGI (HS 578T breast): > 100 µM
TGI (UO-31 renal): > 100 µM
TGI (MDA-N): > 100 µM
TGI (A498 renal): > 100 µM
TGI (SK-MEL-5 melanoma): > 100 µM
TGI (SNB-75 CNS): > 100 µM
TGI (OVCAR-3 ovarian): 73.7 µM
TGI (OVCAR-5 ovarian): > 100 µM
TGI (EKVX NSCLC): > 100 µM
TGI (SF-268 CNS): > 100 µM
TGI (KM12 colon): > 100 µM
TGI (RPMI-8226 leukemia): > 100 µM
TGI (A549 NSCLC): > 100 µM
TGI (SN12C renal): > 100 µM
TGI (HOP-62 NSCLC): > 100 µM
TGI (NCI/ADR-RES ovarian): > 100 µM
TGI (U251 CNS): > 100 µM
TGI (UACC-62 melanoma): > 100 µM
TGI (IGROV1 ovarian): > 100 µM
TGI (NCI-H23 lung): > 100 µM
TGI (NCI-H226 lung): > 100 µM
TGI (MDA-MB-231 breast): > 100 µM

O=C(O)C1C(C(=O)O)C(C(=O)O)C1C(=O)O (centres undefined)
TGI (PC-3 prostate): > 100 µM
TGI (HCT-116 colon): > 100 µM
TGI (LOX IMVI melanoma): > 100 µM
TGI (COLO 205 colon): > 100 µM
TGI (M14 melanoma): > 100 µM
TGI (OVCAR-8 ovarian): > 100 µM
TGI (HOP-92 NSCLC): > 100 µM
TGI (HT29 colon): > 100 µM
TGI (BT-549 breast): > 100 µM
TGI (SF-295 CNS): > 100 µM
TGI (CCRF-CEM leukemia): > 100 µM
TGI (K-562 leukemia): > 100 µM
TGI (SF-539 CNS): > 100 µM
TGI (MDA-MB-435): > 100 µM
TGI (TK-10 renal): > 100 µM
TGI (RXF 393 renal): > 100 µM
TGI (SK-MEL-2 melanoma): > 100 µM
TGI (HCT-15 colon): > 100 µM
TGI (SK-MEL-28 melanoma): > 100 µM
TGI (SR leukemia): > 100 µM
TGI (MOLT-4 leukemia): > 100 µM
TGI (MCF7 breast): > 100 µM
TGI (OVCAR-4 ovarian): > 100 µM
TGI (T-47D breast): > 100 µM
TGI (CAKI-1 renal): > 100 µM
TGI (ACHN renal): > 100 µM
TGI (SNB-19 CNS): > 100 µM
TGI (UACC-257 melanoma): > 100 µM
TGI (SW-620 colon): > 100 µM
TGI (DU-145 prostate): > 100 µM
TGI (786-0 renal): > 100 µM
TGI (SK-OV-3 ovarian): > 100 µM
TGI (NCI-H522 lung): > 100 µM
TGI (NCI-H460 lung): > 100 µM
TGI (MALME-3M melanoma): > 100 µM
TGI (HS 578T breast): > 100 µM
TGI (UO-31 renal): > 100 µM
TGI (MDA-N): > 100 µM
TGI (A498 renal): > 100 µM
TGI (SK-MEL-5 melanoma): > 100 µM
TGI (SNB-75 CNS): > 100 µM
TGI (OVCAR-3 ovarian): > 100 µM
TGI (OVCAR-5 ovarian): > 100 µM
TGI (EKVX NSCLC): > 100 µM
TGI (SF-268 CNS): > 100 µM
TGI (KM12 colon): > 100 µM
TGI (RPMI-8226 leukemia): > 100 µM
TGI (A549 NSCLC): > 100 µM
TGI (SN12C renal): > 100 µM
TGI (HOP-62 NSCLC): > 100 µM
TGI (NCI/ADR-RES ovarian): > 100 µM
TGI (U251 CNS): > 100 µM
TGI (UACC-62 melanoma): > 100 µM
TGI (IGROV1 ovarian): > 100 µM
TGI (NCI-H23 lung): > 100 µM
TGI (NCI-H226 lung): > 100 µM
TGI (MDA-MB-231 breast): > 100 µM

Clc1ccc2c(NCCCCN=Cc3ccccc3)ccnc2c1
TGI (PC-3 prostate): 25.1 µM
TGI (HCT-116 colon): 18.4 µM
TGI (LOX IMVI melanoma): > 100 µM
TGI (COLO 205 colon): 18.1 µM
TGI (M14 melanoma): 27.4 µM
TGI (OVCAR-8 ovarian): 32 µM
TGI (HOP-92 NSCLC): 26.3 µM
TGI (HT29 colon): 21.6 µM
TGI (BT-549 breast): 32.6 µM
TGI (SF-295 CNS): 28 µM
TGI (CCRF-CEM leukemia): > 100 µM
TGI (K-562 leukemia): > 100 µM
TGI (SF-539 CNS): 24.7 µM
TGI (MDA-MB-435): 25.2 µM
TGI (TK-10 renal): 64 µM
TGI (RXF 393 renal): 16.6 µM
TGI (SK-MEL-2 melanoma): 24.5 µM
TGI (HCT-15 colon): 33.1 µM
TGI (SK-MEL-28 melanoma): 29 µM
TGI (MOLT-4 leukemia): 25.7 µM
TGI (MCF7 breast): 28.6 µM
TGI (OVCAR-4 ovarian): 28.1 µM
TGI (T-47D breast): 45.7 µM
TGI (ACHN renal): 49 µM
TGI (SNB-19 CNS): 45.7 µM
TGI (UACC-257 melanoma): 26 µM
TGI (SW-620 colon): 25.2 µM
TGI (DU-145 prostate): 80.8 µM
TGI (786-0 renal): 22.2 µM
TGI (SK-OV-3 ovarian): 59.8 µM
TGI (NCI-H522 lung): 24.5 µM
TGI (NCI-H460 lung): 24.2 µM
TGI (MALME-3M melanoma): 27.5 µM
TGI (HS 578T breast): 36.6 µM
TGI (UO-31 renal): 40.3 µM
TGI (MDA-N): 23.9 µM
TGI (A498 renal): 7.26 µM
TGI (SK-MEL-5 melanoma): 26.5 µM
TGI (HCC-2998 colon): 27.8 µM
TGI (SNB-75 CNS): 24.1 µM
TGI (OVCAR-3 ovarian): 41.9 µM
TGI (OVCAR-5 ovarian): 40.4 µM
TGI (EKVX NSCLC): 43.7 µM
TGI (SF-268 CNS): 35 µM
TGI (KM12 colon): 20.8 µM
TGI (RPMI-8226 leukemia): > 100 µM
TGI (A549 NSCLC): 31.3 µM
TGI (SN12C renal): 21.5 µM
TGI (HOP-62 NSCLC): 23.7 µM
TGI (NCI/ADR-RES ovarian): 46.7 µM
TGI (U251 CNS): 24.5 µM
TGI (IGROV1 ovarian): 36.5 µM
TGI (NCI-H23 lung): 25.1 µM
TGI (NCI-H226 lung): 20 µM
TGI (MDA-MB-231 breast): 29 µM
